In patent US11279703B2, “Fused pyrimidine compounds as BRD4 and JAK2 dual inhibitors and methods for use thereof” (APTOSE BIOSCIENCES INC., priority 2016, dated 2022):
Where two headings read alike, the source gives them in different places.

How the values were obtained:
BRD4-BD1 = BRD4-BD1 (Homo sapiens (Human), UniProt O60885); assay: AlphaLisa bromodomain binding assay, BRD4-BD1
Source text: An AlphaLisa assay was used to observe bromodomain binding and measure IC50s for the compounds disclosed herein. An AlphaLisa assay is a bead-based assay used to detect interactions between bromodomains and polyacetylated histone peptides. Donor and acceptor beads bound to target and ligand are brought into proximity by this protein-protein interaction.
Equipment Required • 1. […] Plate centrifuge • 3. Plate shaker • 4. […] Single channel and multi-channel pipettes • 6. Microplate reader (Pherastar)
(§1) Stock and Final Assay Concentrations (FAC) • 1. All reference and test compounds are made at a concentration of 10 mM in DMSO. Compounds are serially diluted in DMSO and a FAC starting from 10 μM to 10 point 3 fold serial dilutions is arrived. FAC of DMSO is 1%. • 2. Enzyme stock and FAC
Biotinylated substrate (Acetylated histone H4, biotinylated substrate—cat no. AS64989-025, Anaspec) stock and FAC
• 4. Acceptor and donor beads stock and FAC
Buffers • For the enzyme and substrate dilution following buffer is used (for 50 ml) • HEPES: 50 mM 2.5 ml • NaCl: 25 mM 1.25 ml • DTT: 10 mM 0.05 ml • BSA: 0.1% 0.05 g • MilliQ water: 45.7 ml • For dilution of acceptor and donor beads AlphaLISA 5× epigenetics Buffer Perkin Elmer (Cat: AL008C) is used at 1× concentration.
Procedure • 1. […] Tap the plate gently • 3. […] Cover with plate sealer • 5. […] Incubate the plate at room temperature for 10 minutes • 7. Add 10 μl of the substrate • 8. Cover with plate sealer • 9. […] Cover with plate sealer • 14. […] Cover with plate sealer • 18.
(§2) The percent inhibition is calculated in the excel analysis template and the IC50 values are subsequently determined using a sigmoidal dose-response curve (variable slope) using GraphPad Prism® 5 software.

JAK2 = JAK2 (Homo sapiens (Human), UniProt O60674); assay: HTRF kinase assay, JAK2; assay type: biochemical
Source text: A kinase assay with HTRF was used to observe JAK activity and calculate the IC50s of compounds disclosed herein. HTRF is an enzymatic assay used to determine the amount of phosphorylated peptide. FRET (Fluorescence Resonance Energy Transfer) is based on the transfer of energy between two fluorophores—a donor and an acceptor—when in close proximity. Molecular interactions between biomolecules can be assessed by coupling each partner with a fluorescent label and by detecting the level of energy transfer. The amount of phopshorylated peptide can be detected using a combination of a Eu 3+Cryptate labeled anti-phospho residue antibody, SA-XL665 and a biotinylated substrate. The signal is proportional to the concentration of phospho-residues.
Equipment Required • 1. […] Plate centrifuge • 3. Plate shaker • 4. […] Single channel and multi-channel pipettes • 6. Microplate reader (Pherastar)]
as §1, with “arrived. For Ruxolitinib the starting FAC is 1 μM.” for “arrived.”
• JAK-1: Invtirogen Cat: PR8767C • JAK-2: Invtirogen Cat: PR7820B • JAK-3: Invtirogen Cat: PR7507B • 3. Substrate (synthetic peptide-Biotinylated-N-terminal tag-[…] from Biopeptide) stock and FAC
• Adenosine 5′-triphosphate disodium salt hydrate: Sigma Cat: A26209 • 5. […] Buffers • Base buffer (for 50 ml)
• HTRF buffer: • 50 mM Tris-HCl, pH—7.5 • 100 mM NaCl • 0.1% BSA • 0.05% Tween20 • 0.5 mM EDTA
To a 384 well black-plate: • 1. Add 17 μL of the buffer to each well of the 384-well black plate • 2. […] Add 5 μl of the enzyme to each well of the plate • 4. Add 10 μl of the substrate and ATP mix to all the wells • 5. Cover with plate sealer • 6. […] Incubate at room temperature for 1 hour on shaker • 8. […] Add 37.5 μL of the HTRF mix to these wells. • 9. Incubate the plate at room temperature on shaker for 45 minutes. • 10.
as §2

[1] = Table 6, read-out: BRD4(1) IC50

Sequence of JAK2 (O60674 whole entry): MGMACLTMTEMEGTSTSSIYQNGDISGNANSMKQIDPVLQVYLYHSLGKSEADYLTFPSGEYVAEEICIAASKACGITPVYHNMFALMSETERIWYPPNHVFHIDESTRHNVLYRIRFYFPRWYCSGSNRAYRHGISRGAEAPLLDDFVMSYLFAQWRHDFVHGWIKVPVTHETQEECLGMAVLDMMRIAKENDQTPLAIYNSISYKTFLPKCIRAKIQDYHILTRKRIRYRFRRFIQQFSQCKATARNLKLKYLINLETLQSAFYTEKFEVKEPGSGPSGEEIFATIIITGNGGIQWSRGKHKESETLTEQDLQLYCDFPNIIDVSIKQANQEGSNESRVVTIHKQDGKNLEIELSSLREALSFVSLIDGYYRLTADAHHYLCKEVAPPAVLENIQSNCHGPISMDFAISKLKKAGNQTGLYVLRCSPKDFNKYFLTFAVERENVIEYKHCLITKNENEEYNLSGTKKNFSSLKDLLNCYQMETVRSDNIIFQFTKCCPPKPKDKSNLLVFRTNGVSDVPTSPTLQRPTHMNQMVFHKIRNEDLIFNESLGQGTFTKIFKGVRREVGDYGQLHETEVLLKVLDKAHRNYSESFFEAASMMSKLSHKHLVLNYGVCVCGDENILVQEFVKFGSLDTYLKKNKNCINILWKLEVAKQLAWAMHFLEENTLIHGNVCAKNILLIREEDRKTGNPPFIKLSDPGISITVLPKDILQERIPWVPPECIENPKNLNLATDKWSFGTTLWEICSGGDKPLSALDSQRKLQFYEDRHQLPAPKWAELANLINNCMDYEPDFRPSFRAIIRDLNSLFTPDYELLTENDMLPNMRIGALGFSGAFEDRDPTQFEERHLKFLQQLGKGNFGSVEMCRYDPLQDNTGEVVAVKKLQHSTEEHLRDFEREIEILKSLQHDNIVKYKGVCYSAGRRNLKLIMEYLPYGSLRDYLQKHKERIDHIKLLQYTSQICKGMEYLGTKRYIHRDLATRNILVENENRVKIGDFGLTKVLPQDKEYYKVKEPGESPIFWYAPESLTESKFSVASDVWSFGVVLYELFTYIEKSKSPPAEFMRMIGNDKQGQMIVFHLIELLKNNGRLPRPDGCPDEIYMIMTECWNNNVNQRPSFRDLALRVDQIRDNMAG

Row | Compound | IC50 (BRD4-BD1; [1]) [nM] | IC50 (JAK2; Table 6) [nM] | IC50 (BRD4-BD1; Table 5, read-out: BRD4 IC50) [nM] | IC50 (JAK2; Table 5) [nM]
1 | CNCC1CCN(c2ccc(Nc3ncc4c(n3)N(c3cccc(NS(=O)(=O)C(C)(C)C)c3)CC4)cc2F)CC1 | 580 | 9 |  | 
2 | CNCCOc1ccc(Nc2ncc3ccn(-c4cccc(NS(=O)(=O)C(C)(C)C)c4)c3n2)cc1F [drawing 467] | 1300 | 79 |  | 
3 | CN1CCN(c2ccc(Nc3ncc4ccn(-c5cccc6c5CCN6S(=O)(=O)C(C)(C)C)c4n3)cc2)CC1 | 10000 | 8 |  | 
4 | CN(C)C1CCN(c2ccc(Nc3ncc4ccn(-c5cccc(NS(=O)(=O)C(C)(C)C)c5)c4n3)cc2F)CC1 [drawing 76] |  |  | 131 | 3
5 | CN1CCN(c2ccc(Nc3ncc4cccc(-c5cccc(NS(=O)(=O)C(C)(C)C)c5)c4n3)cc2)CC1 | 3800 | 10 |  | 
6 | CN1CCN(C(=O)Cc2ccc(Nc3ncc4ccn(-c5cccc(NS(=O)(=O)C6CC6)c5)c4n3)cc2)CC1 | 4010 | 182 |  | 
7 | Cc1noc(C)c1-c1cccc(-n2ccc3cnc(Nc4ccc(N5CCN(C)CC5)cc4)nc32)c1 [drawing 285] | 2330 | 3 |  | 
8 | CN1CCC(NC(=O)c2ccc(Nc3ncc4ccn(-c5ccc(F)c(NS(=O)(=O)C6CC6)c5)c4n3)cc2)CC1 | 1130 | 152 |  | 
9 | CN1CCCc2cc(Nc3ncc4ccn(-c5cccc(NS(=O)(=O)C(C)(C)C)c5)c4n3)ccc21 | 800 | 70 |  | 
10 | CN1CCC(c2ccc(Nc3ncc4ccn(-c5cccc(NS(=O)(=O)C6CC6)c5)c4n3)cc2)CC1 | 2720 | 51 |  | 
11 | CN(C)C1CCN(c2ccc(Nc3ncc4ccn(-c5cccc(NS(=O)(=O)C6CC6)c5)c4n3)cc2)CC1 | 866 | 14 |  | 
12 | CC(C)(C)S(=O)(=O)Nc1cccc(-n2ccc3cnc(Nc4ccc(C(=O)NC5CCNCC5)cc4)nc32)c1 | 649 | 24 |  | 
13 | CN1CCN2c3c(F)cc(Nc4ncc5ccn(-c6cccc(NS(=O)(=O)C(C)(C)C)c6)c5n4)cc3CC2C1 (stereo not shown) | 571 | 14 |  | 
14 | CN1CCN(c2cccc(Nc3ncc4ccn(-c5cccc(NS(=O)(=O)C(C)(C)C)c5)c4n3)c2)CC1 | 1700 | 74 |  | 
15 | CNc1cc(Nc2ncc3ccn(-c4cccc(NS(=O)(=O)C(C)(C)C)c4)c3n2)ccc1N1CCN(C)CC1 | 561 | 22 |  | 
16 | CC(C)(C)S(=O)(=O)Nc1cccc(-n2ccc3cnc(NC4CCNCC4)nc32)c1 | 10000 | 10000 |  | 
17 | CC(C)(C)S(=O)(=O)Nc1cccc(Nc2nc(NC3CCNCC3)nc3[nH]ccc23)c1 | 10000 | 10000 |  | 
18 | CC(C)(C)S(=O)(=O)Nc1cccc(Nc2nc(NC3CCN(C(N)=O)CC3)nc3sccc23)c1 | 3030 | 10000 |  | 
19 | Cc1ccc(-n2ccc3cnc(Nc4ccc(N5CCN(C)CC5)cc4)nc32)cc1NS(=O)(=O)C(C)(C)C | 680 | 230 |  | 
20 | CN1C(=O)CCc2cc(Nc3ncc4ccn(-c5cccc(NS(=O)(=O)C(C)(C)C)c5)c4n3)ccc21 | 3200 | 35 |  | 
21 | CN1CCN(c2ccc(Nc3ncc4ccn(-c5cccc(NS(=O)(=O)C(C)(C)C)c5)c4n3)cc2Cl)CC1 | 1130 | 8 |  | 
22 | O=S(=O)(Nc1cc(-n2ccc3cnc(Nc4ccc(N5CCNCC5)cc4)nc32)ccc1F)C1CC1 | 1040 | 14.3 |  | 
23 | CN1CCN(c2ccc(Nc3ncc4ccn(-c5ccc(C#N)c(NS(=O)(=O)C6CC6)c5)c4n3)cc2)CC1 | 1800 | 78 |  | 
24 | CN1CCN(c2ccc(Nc3ncc4ccn(-c5ccc(Cl)c(NS(=O)(=O)C(C)(C)C)c5)c4n3)cc2)CC1 | 481 | 165 |  | 
25 | CC(C)S(=O)(=O)Nc1cccc(-n2ccc3cnc(Nc4ccc(N5CCN(C)CC5)cc4)nc32)c1 | 1020 | 8.2 |  | 
26 | CN(C)C1CCN(c2ccc(Nc3ncc4ccn(-c5cccc(NS(=O)(=O)C(C)(C)C)c5)c4n3)cc2)C1 (stereo not shown) | 854 | 37 |  | 
27 | CN1CCN(c2ccc(Nc3ncc4ccn(-c5ccc(CNS(=O)(=O)C(C)(C)C)cc5)c4n3)cc2)CC1 [drawing 378] | 10000 | 0.18 |  | 
28 | CC(C)S(=O)(=O)N1CCN(c2ccc(Nc3ncc4ccn(-c5cccc(NS(=O)(=O)C(C)(C)C)c5)c4n3)cc2)CC1 | 8300 | 120 |  | 
29 | CCC1(S(=O)(=O)Nc2cccc(-n3ccc4cnc(Nc5ccc(N6CCC(N(C)C)CC6)c(F)c5)nc43)c2)CC1 | 1500 | 5 |  | 
30 | CN1CCN(c2ccc(Nc3ncc4ccn(-c5ccc6c(c5)N(S(=O)(=O)C(C)(C)C)CC6)c4n3)cc2)CC1 | 1410 | 32 |  | 

The remaining lines, values ahead:

Row | IC50 (BRD4-BD1; [1]) [nM] | IC50 (JAK2; Table 6) [nM] | IC50 (BRD4-BD1; Table 5, read-out: BRD4 IC50) [nM] | IC50 (JAK2; Table 5) [nM] | Compound
31 | 258 | 82 |  |  | CN(C)C1CCN(c2ccc(Nc3ncc4ccn(-c5ccc(F)c(NS(=O)(=O)C(C)(C)C)c5)c4n3)cc2)CC1
32 | 421 | 2 |  |  | COc1cc(Nc2ncc3ccn(-c4cccc(NS(=O)(=O)C(C)(C)C)c4)c3n2)ccc1N1CCC(N(C)C)CC1
33 | 306 | 13 |  |  | CC(C)(C)S(=O)(=O)Nc1cccc(-n2ccc3cnc(Nc4ccc5c(c4)CC4CNCCN54)nc32)c1 (stereo not shown) [drawing 411]
34 | 366 | 14 |  |  | CN1CCN2c3ccc(Nc4ncc5ccn(-c6cccc(NS(=O)(=O)C(C)(C)C)c6)c5n4)cc3CC2C1 (stereo not shown)
35 | 268 | 8 |  |  | CN(C)C1CCN2c3ccc(Nc4ncc5ccn(-c6cccc(NS(=O)(=O)C(C)(C)C)c6)c5n4)cc3CC2C1 (stereo not shown) [drawing 444]
36 | 208 | 14 |  |  | Cc1cnc(Nc2ccc(N3CCN(C)CC3)cc2)nc1Nc1cccc(NS(=O)(=O)C(C)(C)C)c1 [drawing 405]
37 | 125 | 76 |  |  | CC(C)(C)S(=O)(=O)Nc1cc(-n2ccc3cnc(Nc4ccc(N5CCNCC5)c(F)c4)nc32)ccc1F [drawing 430]
38 | 141 | 6 |  |  | Cc1cnc(Nc2ccc(N3CCN(C)CC3)cc2)nc1Nc1cccc(NS(=O)(=O)C(C)(C)C)c1 [drawing 391]
39 | 300 | 6 |  |  | CC(C)(C)S(=O)(=O)Nc1cccc(-n2ccc3cnc(Nc4cc(F)c5c(c4)CC4CNCCN54)nc32)c1 (stereo not shown)
40 | 228 | 10 |  |  | Cc1cnc(Nc2ccc(N3CCN(C)CC3)cc2)nc1Nc1cccc(NS(=O)(=O)C(C)(C)C)c1 [drawing 281]
41 | 234 | 29 |  |  | CNC1CCN(C(=O)c2ccc(Nc3ncc4ccn(-c5cccc(NS(=O)(=O)C(C)(C)C)c5)c4n3)cc2F)CC1
42 | 235 | 43 |  |  | Cc1cnc(Nc2ccc(N3CCN(C)CC3)cc2)nc1Nc1cccc(NS(=O)(=O)C(C)(C)C)c1 [drawing 339]
43 | 280 | 9 |  |  | Cc1cnc(Nc2ccc(N3CCN(C)CC3)cc2)nc1Nc1cccc(NS(=O)(=O)C(C)(C)C)c1 [drawing 292]
44 | 143 | 83 |  |  | CN(C)CC1CCN(c2ccc(Nc3ncc4ccn(-c5ccc(F)c(NS(=O)(=O)C(C)(C)C)c5)c4n3)cc2F)CC1
45 | 149 | 62 |  |  | CN1CCN(c2ccc(Nc3ncc4ccn(-c5ccc(F)c(NS(=O)(=O)C(C)(C)C)c5)c4n3)cc2F)CC1
46 | 297 | 4 |  |  | CN(C)C1CCN(c2ccc(Nc3ncc4scc(-c5cccc(NS(=O)(=O)C(C)(C)C)c5)c4n3)cc2F)CC1
47 | 221 | 7 |  |  | Cc1cnc(Nc2ccc(N3CCN(C)CC3)cc2)nc1Nc1cccc(NS(=O)(=O)C(C)(C)C)c1 [drawing 226]
